This is an account of results in patent US11584763B2, “Chromenopyridine derivatives as phosphatidylinositol phosphate kinase inhibitors” (HIBERCELL, INC., priority 2017, dated 2023).

What all share (assay type): biochemical
For assay [1], the target named is T1, PIP4K 2A (Homo sapiens, UniProt P48426).
T1 sequence (P48426 1-406): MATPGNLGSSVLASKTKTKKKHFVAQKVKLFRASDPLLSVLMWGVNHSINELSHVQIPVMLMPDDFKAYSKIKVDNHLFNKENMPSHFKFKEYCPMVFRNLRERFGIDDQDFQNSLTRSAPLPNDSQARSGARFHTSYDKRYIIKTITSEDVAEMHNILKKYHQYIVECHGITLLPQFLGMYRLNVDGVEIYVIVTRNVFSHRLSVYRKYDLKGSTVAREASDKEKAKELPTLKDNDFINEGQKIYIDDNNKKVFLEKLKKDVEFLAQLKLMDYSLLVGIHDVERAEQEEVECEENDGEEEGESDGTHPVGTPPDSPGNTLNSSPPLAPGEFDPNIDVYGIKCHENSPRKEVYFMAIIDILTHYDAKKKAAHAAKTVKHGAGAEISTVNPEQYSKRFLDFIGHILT
As to the kind of experiment: ADP-glo kinase assay PIP4K 2A. Further details: 4 nM PIP4K2A (full length protein, SignalChem); purchased SignalChem. The following applies: compounds listed under IC50 bin headings. The essentials:
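Full-length PIP4K2A was pre-incubated 15 min at RT with compound in 20 mM MOPS pH 7.2, 25 mM MgCl2, 0.005% Tween 20. The enzyme mix held 4 nM kinase and 100 μM PI(5)P diC8, and ATP was added from a 60 μM solution. After 1 h at RT, ADP-Glo luminescence gave % inhibition versus DMSO, fitted to IC50 over 10 threefold dilutions.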

Another assay has as its target T2, PIP4K2B (Homo sapiens, UniProt P78356).
T2 construct: made in house; host or cells: E. coli
T2 sequence (P78356 1-416): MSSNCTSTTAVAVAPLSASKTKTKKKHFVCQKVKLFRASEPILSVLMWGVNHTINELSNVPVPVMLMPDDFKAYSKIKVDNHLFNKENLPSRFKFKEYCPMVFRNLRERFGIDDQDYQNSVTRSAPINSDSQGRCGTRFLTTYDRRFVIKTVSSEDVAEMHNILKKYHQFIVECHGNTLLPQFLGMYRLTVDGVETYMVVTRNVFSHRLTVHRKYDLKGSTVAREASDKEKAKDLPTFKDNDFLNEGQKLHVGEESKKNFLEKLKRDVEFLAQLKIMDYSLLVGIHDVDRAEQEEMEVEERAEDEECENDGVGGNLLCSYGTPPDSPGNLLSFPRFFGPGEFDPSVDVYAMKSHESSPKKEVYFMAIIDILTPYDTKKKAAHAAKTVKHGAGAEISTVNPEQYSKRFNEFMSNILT
The assay is described as follows: Trans-FI P kinase assay PIP4K2B (PIP4KtypeIIB inhibition assay). The following applies: compounds listed under IC50 bin headings; 100 uM GTP; read-out: Trans-FI P kinase assays: PIP4K2B IC50. The essentials:
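GST-tagged human PIP4K2B (5 nM, E. coli-expressed) preincubated 1 h at 27 C with compound (top 4.8 uM, 5% DMSO), then reacted 2 h with 100 uM GTP and 80 uM PI5P/DOPE vesicles in HEPES pH 7.3, MgCl2, Triton X-100. GDP detected by Transcreener FI fluorescence via calibration curve; IC50 from % activity vs log[inhibitor].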

The target of assay [2] is T1, PIP4K 2A. As to the kind of experiment: Kinase Assay PIP4K2 A (PIP4KtypeIIA inhibition assay). The note with it: compounds listed under IC50 bin headings. Further details: made in house; host or cells: E. coli. The essentials:
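GST-tagged enzyme from E. coli at 0.5 nM final was preincubated with compound for 1 h at 27 C, then reacted with 10 uM ATP, 80 uM PI5P and DOPE carrier in 50 mM HEPES pH 7.3, 5% DMSO. After 1 h, ADP was measured by ADP-Glo luminescence against a calibration curve. IC50 was fitted from % residual activity.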

SMILES strings stand for the structures.

On to `CC1Oc2cc(C(=O)N(C)C)ccc2-c2cnc(Nc3cnc4c(c3)N(S(C)(=O)=O)CCO4)cc21` (stereo not drawn) [Example 71, N,N,5-trimethyl-3-((1-(methylsulfonyl)-2,3-dihydro-1H-pyrido[2,3-b][1,4]oxazin-7-yl)amino)-5H-chromeno[4,3-c]pyridine-8-carboxamide], for which the 50% inhibitory concentration (IC50) is at most 1 nM against PIP4K 2A [1], 1 to 10 nM on PIP4K2B and at most 1 nM against PIP4K 2A [2].
As to `CC1Oc2cc(C(=O)N(C)C)ccc2-c2cnc(Nc3cnc4c(c3)N(S(=O)(=O)C3CC3)CCO4)cc21` (stereo not drawn) [Example 72, 3-((1-(cyclopropylsulfonyl)-2,3-dihydro-1H-pyrido[2,3-b][1,4]oxazin-7-yl)amino)-N,N,5-trimethyl-5H-chromeno[4,3-c]pyridine-8-carboxamide], the half-inhibitory concentration (IC50) is 1 to 10 nM against PIP4K 2A [1], 1 to 10 nM at PIP4K2B and at most 1 nM against PIP4K 2A [2].
Turning to `CC1(C)Oc2cc(N3CCCC3=O)ccc2-c2cnc(Nc3cnc4c(c3)N3C(=O)CC[C@H]3CO4)cc21` [Example 73, (S)-2-((5,5-dimethyl-8-(2-oxopyrrolidin-1-yl)-5H-chromeno[4,3-c]pyridin-3-yl)amino)-6,6a,7,8-tetrahydro-9H-pyrido[2,3-b]pyrrolo[1,2-d][1,4]oxazin-9-one], the IC50 is at most 1 nM against PIP4K 2A [1], 1 to 10 nM at PIP4K2B and at most 1 nM against PIP4K 2A [2].
In the case of `O=C1CCCN1c1ccc2c(c1)OCc1cc(Nc3cnc4c(c3)N(S(=O)(=O)C3CC3)CCO4)ncc1-2` [Example 74, 1-(3-((1-(cyclopropylsulfonyl)-2,3-dihydro-1H-pyrido[2,3-b][1,4]oxazin-7-yl)amino)-5H-chromeno[4,3-c]pyridin-8-yl)pyrrolidin-2-one], the 50% inhibitory concentration (IC50) against PIP4K 2A [1] was 1 to 10 nM; on PIP4K2B, 1 to 10 nM; against PIP4K 2A [2] it was at most 1 nM.
As to `O=C1CCCN1c1ccc2c(c1)OCc1cc(Nc3cnc4c(c3)N3C(=O)CC[C@H]3CO4)ncc1-2` [Example 75, (S)-2-((8-(2-oxopyrrolidin-1-yl)-5H-chromeno[4,3-c]pyridin-3-yl)amino)-6,6a,7,8-tetrahydro-9H-pyrido[2,3-b]pyrrolo[1,2-d][1,4]oxazin-9-one], the half-inhibitory concentration (IC50) is at most 1 nM against PIP4K 2A [1], 1 to 10 nM at PIP4K2B and at most 1 nM at PIP4K 2A [2].
As for `O=C1CCCN1c1ccc2c(c1)OCc1cc(Nc3cnc4c(c3)N(C(=O)C3CC3)CCO4)ncc1-2` [Example 76, 1-(3-((1-(cyclopropanecarbonyl)-2,3-dihydro-1H-pyrido[2,3-b][1,4]oxazin-7-yl)amino)-5H-chromeno[4,3-c]pyridin-8-yl)pyrrolidin-2-one], the half-inhibitory concentration (IC50) is at most 1 nM at PIP4K 2A [1], 1 to 10 nM at PIP4K2B and at most 1 nM against PIP4K 2A [2].
`COC(=O)N1CCOc2ncc(Nc3cc4c(cn3)-c3ccc(N5CCCC5=O)cc3OC4)cc21` [Example 77, methyl 7-((8-(2-oxopyrrolidin-1-yl)-5H-chromeno[4,3-c]pyridin-3-yl)amino)-2,3-dihydro-1H-pyrido[2,3-b][1,4]oxazine-1-carboxylate]: the IC50 was at most 1 nM at PIP4K 2A [1], 1 to 10 nM at PIP4K2B and at most 1 nM against PIP4K 2A [2].
On to `CS(=O)(=O)N1CCOc2ncc(Nc3cc4c(cn3)-c3ccc(N5CCCC5=O)cc3OC4)cc21` [Example 78, 1-(3-((1-(methylsulfonyl)-2,3-dihydro-1H-pyrido[2,3-b][1,4]oxazin-7-yl)amino)-5H-chromeno[4,3-c]pyridin-8-yl)pyrrolidin-2-one], for which the half-maximal inhibitory concentration (IC50) against PIP4K 2A [1] is at most 1 nM; at PIP4K2B, 1 to 10 nM; against PIP4K 2A [2], at most 1 nM.
For the compound `CC(C)S(=O)(=O)N1CCOc2ncc(Nc3cc4c(cn3)-c3ccc(N5CCCC5=O)cc3OC4)cc21` [Example 79, 1-(3-((1-(isopropylsulfonyl)-2,3-dihydro-1H-pyrido[2,3-b][1,4]oxazin-7-yl)amino)-5H-chromeno[4,3-c]pyridin-8-yl)pyrrolidin-2-one], the IC50 was 1 to 10 nM at PIP4K 2A [1], 10 to 100 nM at PIP4K2B and at most 1 nM on PIP4K 2A [2].
Regarding `CC1Oc2cc(N3CCCC3=O)ccc2-c2cnc(Nc3cncnc3)cc21` (stereo not drawn) [Example 80, 1-(5-methyl-3-(pyrimidin-5-ylamino)-5H-chromeno[4,3-c]pyridin-8-yl)pyrrolidin-2-one], the IC50 on PIP4K 2A [1] lay within 10 to 100 nM; at PIP4K2B, 100 to 1000 nM; against PIP4K 2A [2], 10 to 100 nM.
As to `CC1Oc2cc(N3CCCC3=O)ccc2-c2cnc(Nc3cncc(C(F)(F)F)c3)cc21` (stereo not drawn) [Example 81, 1-(5-methyl-3-((5-(trifluoromethyl)pyridin-3-yl)amino)-5H-chromeno[4,3-c]pyridin-8-yl)pyrrolidin-2-one], the IC50 against PIP4K 2A [1] is 100 to 1000 nM; on PIP4K2B, over 1000 nM; against PIP4K 2A [2], 10 to 100 nM.
Taken in the same sequence, the figures for `CC1Oc2cc(N3CCCC3=O)ccc2-c2cnc(Nc3cnc4c(c3)N(C(=O)C3CC3)CCO4)cc21` (stereo not drawn) [Example 82, 1-(3-((1-(cyclopropanecarbonyl)-2,3-dihydro-1H-pyrido[2,3-b][1,4]oxazin-7-yl)amino)-5-methyl-5H-chromeno[4,3-c]pyridin-8-yl)pyrrolidin-2-one] were at most 1 nM, 1 to 10 nM and at most 1 nM.
For `COC(=O)N1CCOc2ncc(Nc3cc4c(cn3)-c3ccc(N5CCCC5=O)cc3OC4C)cc21` (stereo not drawn) [Example 83, methyl 7-((5-methyl-8-(2-oxopyrrolidin-1-yl)-5H-chromeno[4,3-c]pyridin-3-yl)amino)-2,3-dihydro-1H-pyrido[2,3-b][1,4]oxazine-1-carboxylate], the 50% inhibitory concentration (IC50) on PIP4K 2A [1] was at most 1 nM; at PIP4K2B, 1 to 10 nM; on PIP4K 2A [2], at most 1 nM.
`CC(C)C(=O)N1CCOc2ncc(Nc3cc4c(cn3)-c3ccc(N5CCCC5=O)cc3OC4C)cc21` (stereo not drawn) [Example 84, 1-(3-((1-isobutyryl-2,3-dihydro-1H-pyrido[2,3-b][1,4]oxazin-7-yl)amino)-5-methyl-5H-chromeno[4,3-c]pyridin-8-yl)pyrrolidin-2-one]: the IC50 is at most 1 nM on PIP4K 2A [1], 1 to 10 nM on PIP4K2B and at most 1 nM against PIP4K 2A [2].
With `CC1Oc2cc(N3CCCC3=O)ccc2-c2cnc(Nc3cnc4c(c3)N(S(=O)(=O)C(C)C)CCO4)cc21` (stereo not drawn) [Example 85, 1-(3-((1-(isopropylsulfonyl)-2,3-dihydro-1H-pyrido[2,3-b][1,4]oxazin-7-yl)amino)-5-methyl-5H-chromeno[4,3-c]pyridin-8-yl)pyrrolidin-2-one], the IC50 was 1 to 10 nM against PIP4K 2A [1], 10 to 100 nM at PIP4K2B and at most 1 nM against PIP4K 2A [2].
For the compound `CC1Oc2cc(N3CCCC3=O)ccc2-c2cnc(Nc3cnc4c(c3)N(C(=O)C(C)(C)C)CCO4)cc21` (stereo not drawn) [Example 86, 1-(5-methyl-3-((1-pivaloyl-2,3-dihydro-1H-pyrido[2,3-b][1,4]oxazin-7-yl)amino)-5H-chromeno[4,3-c]pyridin-8-yl)pyrrolidin-2-one], the figures for the 50% inhibitory concentration (IC50) against PIP4K 2A [1], at PIP4K2B and at PIP4K 2A [2] were at most 1 nM, 1 to 10 nM and at most 1 nM, respectively.
As to `COc1ncc(Nc2cc3c(cn2)-c2ccc(N4CCCC4=O)cc2OC3C)cc1NC(C)=O` (stereo not drawn) [Example 87, N-(2-methoxy-5-((5-methyl-8-(2-oxopyrrolidin-1-yl)-5H-chromeno[4,3-c]pyridin-3-yl)amino)pyridin-3-yl)acetamide], the results for the IC50 at PIP4K 2A [1], on PIP4K2B and against PIP4K 2A [2] were 1 to 10 nM, 10 to 100 nM and 1 to 10 nM, respectively.
